From US20260183303A1, “PDK1 REGULATORY COMPOUND AND COMPOSITION CONTAINING THE SAME” (PROVIBIO CO., LTD., priority 2024, published 2026)

Assays:
[1] = system: Human B Lymphocyte cell line, SU-DHL-8; assay: Relative cell viability (CCK-8), SU-DHL-8; format: cell-based; conditions: 48 hours, untreated cells (DMSO) = 100%
Method: Human-derived B lymphoma cell line SU-DHL-8 (Cat. #CRL-2961) purchased from ATCC was cultured in RPMI-1640 medium containing […], 100 U/mL penicillin, and 100 μg/mL streptomycin.
The cell culture medium was then harvested, centrifuged at 1,300 rpm for 5 minutes, and the supernatant was removed. The cells were resuspended in the same medium and dispensed into a 96-well plate (Costar 96-well cell culture plate, Corning) at 90 μL per well, resulting in the conditions specified in Table 5.
Then, 10 μL of CCK-8 was added to each well, and the plates were incubated again at 37° C. in a 5% CO2 incubator for 4 hours.
In other words, when the survival rate of untreated cells (DMSO) is set at 100%, the relative cell survival rate in each group treated with the drug at different concentrations is indicated.

[2] = system: T cells isolated from mouse spleens; assay: T cell proliferation inhibition (CFSE flow cytometry, anti-CD3/anti-CD28 activation); format: cell-based, C57BL/6 mice; conditions: mouse spleen T cells, CD3/CD28 activated, cultured three days
Method: To verify the T cell proliferation inhibitory effect of the compounds according to the present invention, the following experiment was performed based on flow cytometry analysis using carboxyfluorescein diacetate succinimidyl ester (CFSE), a fluorescent dye that binds to intracellular molecules via covalent bonds.
Spleens were extracted from 7-week-old C57BL/6 mice, ground, and then separated into single cells using a strainer ([…], SPL). Red blood cells were removed using ACK (Ammonium-Chloride-Potassium) lysis buffer to isolate white blood cells.
Finally, using a MACS Magnetic Stand and LS column, T cells were isolated from the spleen.
The T cells isolated from the spleen were resuspended in 1 mL of free medium (RPMI-1640+200 U/mL penicillin+200 μg/mL streptomycin), and 0.3 μL of CFSE (10 mM) was added. The mixture was incubated at 37° C. for 5 minutes.
Free medium (10 mL) was added to stop the reaction, and the cells were centrifuged to obtain the cell pellet.
RPMI 1640 medium containing 10% FBS, 100 U/mL penicillin, 100 μg/mL streptomycin, and resuspended the cells. The cells were then seeded into a 96-well plate at a density of 2×10^5 cells per well and activated with CD3 and CD28 antibodies ([…]) to activate T cells.
The compound diluted in DMSO was added at concentrations of 10 nM, 100 nM, 1 μM, […], 30 μM, and 50 µM, with three wells per concentration, and cultured at 37° C. and 5% CO2 for three days. The cells were then analyzed using a FACS Canto instrument.
The proliferation inhibition rate (%) was calculated using the following formula: […]

| SMILES | Relative cell viability (%) ([1]; SU-DHL-8, 1 μM) | Relative cell viability (%) ([1]; SU-DHL-8, 10 μM) | Relative cell viability (%) ([1]; SU-DHL-8, 30 μM) | Relative cell viability (%) ([1]; SU-DHL-8, 50 μM) | Proliferation inhibition rate (%) ([2]; 10 nM) | Proliferation inhibition rate (%) ([2]; 100 nM) | Proliferation inhibition rate (%) ([2]; 1 μM) | Proliferation inhibition rate (%) ([2]; 10 μM) | Proliferation inhibition rate (%) ([2]; 30 μM) | Proliferation inhibition rate (%) ([2]; 50 μM) | Proliferation inhibition rate (%) ([2]; 10 nM, listed as K-PB-48, 0.01 µM) |
| --- | --- | --- | --- | --- | --- | --- | --- | --- | --- | --- | --- |
| CN(C)C1CCN(CCCCCCCCCCCCNC(=O)c2cccnc2N)C1 (stereo not drawn) [Compound 19, 2-Amino-N-(12-(3-(dimethylamino)pyrrolidin-1-yl)dodecyl) nicotinamide] | 8.51% | 7.51% | 5.98% | 5.08% | −14.40% | 100.00% | 100.00% | 100.00% | 100.00% | 100.00% | – |
| CC1CN(CCCCCCCCCCCCNC(=O)c2cccnc2N)CC(C)O1 (stereo not drawn) [Compound 21, 2-Amino-N-(12-(2,6-dimethylmorpholino)dodecyl) nicotinamide] | – | – | 3.70% | – | – | 100.00% | 100.00% | 100.00% | 100.00% | 100.00% | – |
| CC1CCN(CCCCCCCCCCCCNC(=O)c2cccnc2N)C1 (stereo not drawn) [Compound 24, 2-Amino-N-(12-(3-methylpyrrolidin-1-yl)dodecyl) nicotinamide] | – | – | 0.62% | – | – | 100.00% | 100.00% | 100.00% | 100.00% | 100.00% | – |
| Nc1ncccc1C(=O)NCCCCCCCCCCCCN1CCS(=O)(=O)CC1 [Compound 25, 2-Amino-N-(12-(1,1-dioxidothiomorpholino)dodecyl) nicotinamide] | – | – | 0.11% | 0.95% | – | – | 100.00% | 100.00% | 100.00% | 100.00% | – |
| Nc1ncccc1C(=O)NCCCCCCCCCCCCN1CCC(F)C1 (stereo not drawn) [Compound 26, 2-Amino-N-(12-(3-fluoropyrrolidin-1-yl)dodecyl) nicotinamide] | 1.70% | – | 0.05% | – | – | 100.00% | 100.00% | 100.00% | 100.00% | 100.00% | – |
| Nc1ncccc1C(=O)NCCCCCCCCCCCCN1CCN(Cc2ccc(F)cc2)CC1 [Compound 27, 2-Amino-N-(12-(4-(4-fluorobenzyl)piperazin-1-yl)dodecyl) nicotinamide] | 6.24% | 4.97% | 2.03% | 0.56% | 2.27% | 83.33% | 100.00% | 100.00% | 100.00% | 100.00% | – |
| COc1ccc(CN2CCN(CCCCCCCCCCCCNC(=O)c3cccnc3N)CC2)cc1 [Compound 28, 2-Amino-N-(12-(4-(4-methoxybenzyl)piperazin-1-yl)dodecyl) nicotinamide] | 5.46% | 2.82% | 0.33% | – | −0.27% | 100.00% | 100.00% | 100.00% | 100.00% | 100.00% | – |
| CN(C)CCN1CCN(CCCCCCCCCCCCNC(=O)c2cccnc2N)CC1 [Compound 33, 2-Amino-N-(12-(4-(2-(dimethylamino)ethyl)piperazin-1-yl)dodecyl) nicotinamide] | – | 4.32% | 3.35% | 2.66% | −36.05% | 100.00% | 100.00% | 100.00% | 100.00% | 100.00% | – |
| CC1CNCCN1CCCCCCCCCCCCNC(=O)c1cccnc1N (stereo not drawn) [Compound 35, 2-Amino-N-(12-(2-methylpiperazin-1-yl)dodecyl) nicotinamide] | – | 0.64% | 0.42% | – | – | 100.00% | 100.00% | 100.00% | 100.00% | 100.00% | – |
| Nc1ncccc1C(=O)NCCCCCCCCCCCCN1CCC(Oc2ccncc2)CC1 [Compound 38, 2-Amino-N-(12-(4-(pyridin-4-yloxy)piperidin-1-yl)dodecyl) nicotinamide] | – | 3.30% | – | – | – | 100.00% | 100.00% | 100.00% | 100.00% | 100.00% | – |
| CN1CCN(CCCCCCCCCCCCNC(=O)c2cccnc2F)CC1 [Compound 121, 2-fluoro-N-(12-(4-methylpiperazin-1-yl)dodecyl) nicotinamide] | – | – | – | – | 0.00% | 0.00% | 0.00% | 30.00% | 100.00% | 100.00% | – |
| Nc1ncccc1C(=O)NCCCCCCCCCCCCN1CC(F)(F)C1 [Compound 122, 2-Amino-N-(12-(3,3-difluoroazetidin-1-yl)dodecyl) nicotinamide] | – | – | – | – | 0.00% | 0.00% | 80.00% | 100.00% | 100.00% | 100.00% | – |
| COC1CCN(CCCCCCCCCCCCNC(=O)c2cccnc2N)C1 (stereo not drawn) [Compound 126, 2-amino-N-(12-(3-methoxypyrrolidin-1-yl)dodecyl) nicotinamide] | – | – | – | – | – | 100.00% | 100.00% | 100.00% | 100.00% | 100.00% | 0.00% |
| Nc1ncccc1C(=O)NCCCCCCCCCCCCN1CCOC1=O [Compound 127, 2-amino-N-(12-(2-oxooxazolidin-3-yl)dodecyl) nicotinamide] | – | – | – | – | – | – | – | 100.00% | 100.00% | 100.00% | – |
| Nc1ncccc1C(=O)NCCCCCCCCCCCCNC1CCOC1 (stereo not drawn) [Compound 128, 2-amino-N-(12-((tetrahydrofuran-3-yl)amino)dodecyl) nicotinamide] | – | – | – | – | – | 100.00% | 100.00% | 100.00% | 100.00% | 100.00% | – |
| Nc1ncccc1C(=O)NCCCCCCCCCCCCN1CC=CC1 [Compound 129, 2-amino-N-(12-(2,5-dihydro-1H-pyrrol-1-yl)dodecyl) nicotinamide] | – | – | – | – | 0.00% | 90.00% | 100.00% | 100.00% | 100.00% | 100.00% | – |
